Here are results for ten compounds from article PMC6696315, “Inhibiting Acetylcholinesterase to Activate Pleiotropic Prodrugs with Therapeutic Interest in Alzheimer’s Disease” (Molecules, 2019).

The subject of series [1] is rodents. The following applies: cited from earlier work.
Series [2] concerns rodents. The conditions noted are these: various tests; cited from earlier work.
For series [3], the target named is T1, AChE (Homo sapiens, UniProt P22303). The series can be described thus: AChE inhibition, Ellman assay. The conditions noted are these: for inhibition at 1 µM: read-out: (h)AChE % Inhibition at 10^−6 M; for AChE inhibitory activity: result in words. It counts as biochemical. Set-up: AChE from human erythrocytes; purchased Sigma Aldrich; host or cells: human erythrocytes (natural source). As to the method: All the synthesized phenolic derivatives and their carbamates were evaluated as potential inhibitors of human AChE, using the Ellman assay, as well as potential ligands for human 5-HT4R using a radioligand displacement assay.
T1 sequence (P22303 32-617 isoform P22303-2 limits assumed): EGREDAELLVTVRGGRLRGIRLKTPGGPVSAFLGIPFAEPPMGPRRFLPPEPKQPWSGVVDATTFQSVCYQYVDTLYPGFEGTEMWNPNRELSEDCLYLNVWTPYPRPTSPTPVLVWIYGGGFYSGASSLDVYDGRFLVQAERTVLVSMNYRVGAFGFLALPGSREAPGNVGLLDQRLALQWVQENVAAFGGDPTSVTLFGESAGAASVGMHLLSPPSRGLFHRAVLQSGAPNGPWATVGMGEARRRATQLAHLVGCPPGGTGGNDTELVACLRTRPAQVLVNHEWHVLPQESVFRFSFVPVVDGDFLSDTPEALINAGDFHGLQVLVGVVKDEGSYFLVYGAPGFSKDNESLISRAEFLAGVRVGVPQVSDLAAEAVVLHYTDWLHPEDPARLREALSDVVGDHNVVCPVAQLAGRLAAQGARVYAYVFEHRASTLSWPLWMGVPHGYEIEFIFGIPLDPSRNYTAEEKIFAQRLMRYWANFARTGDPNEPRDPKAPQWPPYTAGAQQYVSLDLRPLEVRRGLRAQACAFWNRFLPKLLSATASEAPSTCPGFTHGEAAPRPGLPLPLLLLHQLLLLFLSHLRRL
The inhibitory capacity of compounds on AChE biological activity was evaluated through the use of the spectrometric method of Ellman. Acetylthiocholine iodide and 5,5-dithiobis-(2-nitrobenzoic) acid (DTNB) were purchased from Sigma Aldrich. AChE from human erythrocytes (buffered aqueous solution, ≥500 units/mg protein (BCA), Sigma Aldrich, St. Louis, MO, USA) was diluted in 20 mM HEPES buffer pH 8, 0.1% Triton X-100 such as to have enzyme solution with 0.25 unit/mL enzyme activity. In the procedure, 100 μL of 0.3 mM DTNB dissolved in a phosphate buffer with pH 7.4 were added into the 96-well plates followed by 50 μL of the test compound solution and 50 μL of enzyme (0.05 U final). After 5 min of preincubation at 25 °C, the reaction was then initiated by the injection of 50 μL of 10 mM acetylthiocholine iodide solution. […] Assays were performed with a blank containing all components except acetylthiocholine, in order to account for non-enzymatic reactions. The reaction slopes were compared and the percent inhibition due to the presence of test compounds was calculated by the following expression: 100 − (vi/v0 × 100), where vi is the rate calculated in the presence of inhibitor and v0 is the enzyme activity.

Series [4] deals with T2, human 5-HT4R (Homo sapiens, UniProt Q13639).
T2 construct: purchased Eurofins HTS110M
T2 sequence (Q13639 whole entry): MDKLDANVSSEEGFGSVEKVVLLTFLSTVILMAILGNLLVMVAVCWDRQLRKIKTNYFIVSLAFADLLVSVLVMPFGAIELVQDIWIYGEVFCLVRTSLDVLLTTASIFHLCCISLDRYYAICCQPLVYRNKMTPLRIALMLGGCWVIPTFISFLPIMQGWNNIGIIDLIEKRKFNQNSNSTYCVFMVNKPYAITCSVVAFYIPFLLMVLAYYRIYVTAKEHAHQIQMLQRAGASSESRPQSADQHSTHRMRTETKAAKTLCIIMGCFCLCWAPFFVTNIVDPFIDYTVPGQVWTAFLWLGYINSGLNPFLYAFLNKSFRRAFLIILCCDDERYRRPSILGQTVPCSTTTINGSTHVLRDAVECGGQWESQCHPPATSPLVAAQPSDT
The series can be described thus: 5-HT4R radioligand displacement assay ([3H]-GR113808). It counts as binding. The following applies: for 5-HT4R affinity: result in words. As for the experimental part: All the synthesized phenolic derivatives and their carbamates were evaluated as potential inhibitors of human AChE, using the Ellman assay, as well as potential ligands for human 5-HT4R using a radioligand displacement assay. […].
For competition studies, 2.5 µg of proteins (5-HT4(b) membrane preparations, HTS110M, Eurofins. Eurofins’ 5-HT4(b) membrane preparations are crude membrane preparations made from their proprietary stable recombinant cell lines to ensure high-level of GPCR surface expression.) were incubated in duplicate at 25 °C for 60 min in the absence or the presence of 10^−6 or 10^−8M of each drug (9 was used as a reference standard) and 0.2 nM [^3H]-GR113808 (NET 1152, Perkin Elmer) in 25 mM Tris buffer (pH 7.4, 25 °C). At the end of the incubation, homogenates were filtered through Whatman GF/C filters (Alpha Biotech) pre-soaked with 0.5% polyethylenimine using a Brandel cell harvester. Filters were subsequently washed three times with 1 mL of ice-cold 25 mM Tris buffer (pH 7.4, 4 °C). Non-specific binding was evaluated in parallel in the presence of 30 µM serotonin. For some of these compounds, affinity constants were calculated from five-point inhibition curves using the GraphPad Prism 6 software and expressed as Ki ± SD.
In general terms: Displacement assays read how much labelled ligand stays bound in the presence of the test substance.

Series [5] has as its target T2, human 5-HT4R. Described as above. The following applies: mean ± SEM of at least three experiments. It counts as binding.
Series [6] addresses T1, AChE. The series can be described thus: Kinetic study for AChE inhibition (Lineweaver-Burk plots). It counts as biochemical. As for the experimental part: To try to clarify the mechanism of action of 19 and 20, reciprocal plots of 1/velocity vs. 1/[substrate] were constructed at different concentrations of the substrate acetylthiocholine iodide (0.01–1 mM) by using the spectrometric method by Ellman et al.. Four concentrations of 19 were selected for the studies: 10^−6, 10^−7, 10^−8 and 10^−9 M for the kinetic analysis of AChE inhibition. Four concentrations of 20 were selected for the studies: 10^−5, 10^−6, 10^−7 and 10^−8 M for the kinetic analysis of AChE inhibition. The plots were assessed by a weighted least squares analysis that assumed the variance of velocity (ν) to be a constant percentage of ν for the entire dataset. Slopes of these reciprocal plots were then plotted against the concentration of 19 and 20 in a weighted analysis.

Series [7] deals with T3, (h)5-HT4(a) receptors (Homo sapiens, UniProt Q13639).
T3 construct: HA; expressed in transfected cells; host or cells: COS-7
T3 sequence (Q13639 1-387 isoform Q13639-2): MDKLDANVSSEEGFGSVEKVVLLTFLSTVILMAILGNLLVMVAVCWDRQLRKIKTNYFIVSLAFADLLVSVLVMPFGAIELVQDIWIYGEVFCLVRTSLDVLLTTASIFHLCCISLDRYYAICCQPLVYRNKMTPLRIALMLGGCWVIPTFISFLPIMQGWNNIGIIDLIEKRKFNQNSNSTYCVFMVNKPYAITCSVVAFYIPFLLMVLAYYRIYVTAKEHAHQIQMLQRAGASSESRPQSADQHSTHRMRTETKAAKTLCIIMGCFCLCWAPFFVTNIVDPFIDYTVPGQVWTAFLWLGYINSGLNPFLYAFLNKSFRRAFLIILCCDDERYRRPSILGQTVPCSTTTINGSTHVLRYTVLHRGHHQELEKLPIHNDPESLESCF
In words: cAMP production in COS-7 cells transfected with 5-HT4R. It counts as cell-based. As to the method:
COS-7 cells were grown in Dulbecco’s modified Eagle medium (DMEM) supplemented with 10% dialyzed fetal calf serum (dFCS) and antibiotics. Cells were transiently transfected by electroporation with plasmids encoding HA-tagged 5-HT4R (100 ng/10^6 cells), then seeded in 96-well plates (16,000 cells/well). […] After 10 min, cells were then lysed by the addition of the same volume of Triton-X100 (0.1%). Quantification of cAMP production was performed by HTRF® using the cAMP Dynamic kit (Cisbio Bioassays, Codolet, France) according to the manufacturer’s instructions.
For orientation: Changes in cAMP serve as a functional read-out for many G protein-coupled receptors.

In series [8] the test system is mice. The series can be described thus: CNS-activity and acute toxicity test. The conditions noted are these: mice, IP. As for the experimental part: Animals. Adult male NMRI mice (3 months old, weighing 35–40 g) from Janvier labs (Le Genest-Saint-Isle, France) were used to perform experiments. Mice were housed by ten in standard polycarbonate cages in standard controlled conditions (22 ± 2 °C, 55 ± 10% humidity) with a reversed 12 h light/dark cycle (light on at 7 pm). Food and water were available ad libitum in the home cage. All experiments were conducted (between 9 am and 3 pm) during the active–dark phase of the cycle and were in agreement with the European Directives and French law on animal experimentation (personal authorization n° 14–17 for MB and 14–60 for TF).
CNS-activity and acute toxicity test. Behavioral and neurological changes induced by graded doses (1, 10, 100 mg/kg) of the tested derivatives were evaluated in mice, in groups of four, by a standardized observation technique at different times (30 min, 3 and 24 h) after intraperitoneal administration. […] The approximate DL50 of the compounds were also calculated through the quantification of mortality after 24 h. Amphetamine (2 mg/kg) and chlorpromazine (10 mg/kg) were used as the stimulant and depressive references, respectively.

[9] abbreviates: (h)AChE IC50, Ellman assay, mean ± SEM of at least two experiments.

Molecules are shown by their SMILES. Where “and” joins values, the source holds several entries; their conditions need not be identical. Equal values may be shown once. Entries after “also recorded” stand apart in the source; their conditions may differ. Where a name gives a salt, the structure may show the parent alone.

Take `CCN(C)C(=O)Oc1cccc([C@H](C)N(C)C)c1` [Rivastigmine]: the “effect on memory deficits induced by MK 801” value in series [1] was “ineffective in improving memory deficits induced by MK 801”. Moreover, in series [2], the “effect on scopolamine-induced memory performance deficit” value was “counterbalance scopolamine-induced memory performance deficit”.

`CCN(C)C(=O)Oc1cccc(CN2CCC(COC(=O)c3cc(Cl)c(N)cc3OC)CC2)c1` [Compound 8, [1-[[3-[Ethyl(methyl)carbamoyl]oxyphenyl]methyl]-4-piperidyl]methyl 4-amino-5-chloro-2-methoxybenzoate]: 16300 nM corresponded to half-maximal inhibition in series [3] (setting [9]) (IC50). For the same compound, the inhibition (usually the relative decrease from the control value, in per cent) at 0.01 µM in series [4] (10^−8 M) was determined as 23%. Further, the 5-HT4R affinity result in series [4] was “devoid of any activity towards 5-HT4R”.

As to `COc1cc(N)c(Cl)cc1C(=O)CCC1CCN(Cc2cccc(O)c2)CC1` [Compound 4, 1-(4-Amino-5-chloro-2-methoxyphenyl)-3-[1-[(3-hydroxyphenyl)methyl]-4-piperidyl]propan-1-one], the Ki (usually the dissociation constant of the complex between target and ligand, obtained from inhibition or displacement) in series [5] was 5.1 ± 1.1 nM. For the same compound, the IC50 (as a rule, the midpoint of a concentration-inhibition curve) in series [3] (setting [9]) was 148 nM and 149 nM.

As to `COc1cc(N)c(Cl)cc1C(=O)CCC1CCN(Cc2cccc(O)c2)CC1.O=C(O)/C=C/C(=O)O` [Compound 19, 1-(4-Amino-5-chloro-2-methoxyphenyl)-3-[1-[(3-hydroxyphenyl)methyl]-4-piperidyl]propan-1-one fumaric acid salt], in series [6], the “mechanism of AChE inhibition” value is “non-competitive AChE inhibitor; also recorded: non-competitive-type”. Besides, in series [7] (5-HT as control 5-HT4R agonist, mean ± SEM), the “% Control Agonist Response” value was found to be 59.0 ± 3.9%. The Profile entry in series [7] ((h)5-HT4(a) pharmacological profile) was “partial 5-HT4R agonist”. Besides, in series [7] (given as Log(EC50), negative values, mean ± SEM), the EC50 (in general, the concentration that produces a half-maximal response) is 0.126 nM. In series [5], this compound came in with a Ki of 6.9 ± 1.2 nM. The midpoint of inhibition in series [3] (setting [9]), the IC50, lay at 72 ± 1.4 nM.

For the compound `CCN(C)C(=O)Oc1cccc(CN2CCC(CCC(=O)c3cc(Cl)c(N)cc3OC)CC2)c1` [Compound 7, [3-[[4-[3-(4-Amino-5-chloro-2-methoxyphenyl)-3-oxopropyl]-1-piperidyl]methyl]phenyl] N-ethyl-N-methyl-carbamate], the IC50 amounted to 4150 ± 794 nM in series [3] (setting [9]) and 4150 nM in series [3] (AChE IC50, value in text). In addition, in series [4] (10^−8 M), the “(h)5-HT4R % Inhibition at 10^−8 M” value was determined as 3%. For the same compound, the 5-HT4R affinity entry in series [4] is on record as “devoid of any activity towards 5-HT4R”.

With `C[C@H](N)Cc1ccccc1` [Amphetamine, (+)-α-Methylphenethylamine hemisulfate, reference compound], the “Symptoms (Subtoxic Doses)” value in series [8] (2 mg/kg, stimulant reference) is given as “Hyperactivity, exophtalmy, irritability”.

On to `COc1cc(N)c(Cl)cc1C(=O)NCC1CCN(Cc2cccc(O)c2)CC1` [Compound 6, 4-Amino-5-chloro-N-[[1-[(3-hydroxyphenyl)methyl]-4-piperidyl]methyl]-2-methoxybenzamide], for which the inhibitory constant (Ki) in series [5] came out at 5.8 ± 1.2 nM. Further, in series [3], the inhibition at 1 µM was 4% and the AChE inhibitory activity entry is listed as “devoid of any AChE inhibitory activities; also recorded: absent”.

As to `CCN(C)C(=O)Oc1cccc(CN2CCC(CNC(=O)c3cc(Cl)c(N)cc3OC)CC2)c1` [Compound 9, [3-[[4-[[(4-Amino-5-chloro-2-methoxybenzoyl)amino]methyl]-1-piperidyl]methyl]phenyl] N-ethyl-N-methyl-carbamate], in series [3] (setting [9]), the IC50 was found to be 10100 nM. The compound also came in with an inhibition at 0.01 µM in series [4] (10^−8 M) of 13%. In series [4], the 5-HT4R affinity entry is “devoid of any activity towards 5-HT4R”.

Turning to `COc1cc(N)c(Cl)cc1C(=O)OCC1CCN(Cc2cccc(O)c2)CC1` [Compound 5, [1-[(3-Hydroxyphenyl)methyl]-4-piperidyl]methyl 4-amino-5-chloro-2-methoxybenzoate], the affinity in series [5] corresponds to a Ki of 0.6 ± 0.4 nM. In series [3], the inhibition at 1 µM stood at 11% and the AChE inhibitory activity entry is listed as “devoid of any AChE inhibitory activities; also recorded: absent”.

In the case of `CN(C)CCCN1c2ccccc2Sc2ccc(Cl)cc21` [Chlorpromazine, chlorpromazine hydrochloride, reference compound], the “Symptoms (Subtoxic Doses)” value in series [8] (10 mg/kg, depressive reference) is on record as “Hypoactivity, ataxia, sleep”.
